Assay results taken from paper PMC9863266, “Preclinical Studies and Drug Combination of Low-Cost Molecules for Chagas Disease” (Pharmaceuticals, 2022).

Tests used:
[1] = system: Salmonella typhimurium strains TA98, T100, T102, TA1535, and TA1537; assay: Ames test (mutagenicity); format: cell-based; details: for Ames test TA98 revertant colonies / Ames test TA100 revertant colonies / Ames test TA102 revertant colonies / Ames test TA1535 revertant colonies / Ames test TA1537 revertant colonies: absence of metabolic activation
Protocol: The mutagenic capacity of the compounds was determined from a 2 × 10^9 CFU/mL culture in Oxoid No. 2 medium in the exponential phase of Salmonella typhimurium strains TA98, T100, T102, TA1535, and TA1537 (hisD3052, histidine-dependent). Five serial dilutions to the third in DMSO were evaluated, starting from the maximum non-toxic dose estimated from the results of the toxicity test carried out initially. Positive controls were performed with 4-nitro-o-phenylenediamine (20 µg/plate) in the case of mutagenicity without activation. DMSO (50 µL/plate) and phenotype control (resistance to ampicillin, tetracycline, crystal violet, and sensitive UV light) were used as negative control. Compounds were incubated for 1 h at 37 °C in 2 mL of an agar solution containing 200 µL of histidine solution [(0.5 mM)/biotin (0.5 mM)]. It was then grown on glucose minimal agar for 48 h at 37 °C. When the effect of the metabolization on the compounds was studied, the S9 fraction (Gibco™, Thermo Fisher Scientific, Grand Island, NY, US) […] and expressed as the mean of duplicates ± standard deviation. The product was considered mutagenic when the number of revertant colonies doubled that of the negative control in at least two consecutive doses. The preparation of the bacterial suspension, the dissolution of the S9 fraction, the product, and the first part of the test (until the tubes with all the solutions were transferred to the stove for incubation) was carried out under sterile conditions, in a laboratory laminar flow and with sterile material (autoclave at 121 °C for 20 min or maintaining the manufacturer’s sterility). The addition of the histidine/biotin solution and the seeding of the plates were carried out under an upward air current generated by a burner.

[2] = system: epimastigote form of T. cruzi, Tulahuen 2 strain; assay: Viability by flow cytometry, CA-AM/IP labeling; format: cell-based; details: 20 × IC50
Protocol: Additionally, we evaluated the viability of treated parasites by flow cytometry analysis after incubation with methylated acetoxycalcein (CA-AM) and propidium iodide (IP). […] Since the methodology used to determine the IC50 is based on 5 days of incubation, doses 20 times higher were used to analyze cell viability in shorter times. Similarly, these compounds’ concentrations were used to determine the death mechanism involved at the aforementioned times.
Viability studies of parasites by flow cytometry: The feasibility studies were carried out by evaluating the esterase activity of the parasites using Acetoxymethylated Calcein (CA-AM) and IP (Thermo Fisher Scientific). […] Fluorescence intensity for 10,000 events was acquired from two independent experiments and data were analyzed using BD CSampler software (BD Bioscience).

[3] = system: epimastigote form of T. cruzi, Tulahuen 2 strain; assay: Mechanism of death by flow cytometry, AV/IP labeling; format: cell-based; details: 20 × IC50
Protocol: Parasites were immediately analyzed on an Accuri C6 flow cytometer (BD Bioscience, Franklin Lakes, New Jersey, U.S.). […] Ten thousand events were analyzed for each of the two independent experiments. Data were analyzed using BD CSampler software (BD Bioscience). Untreated parasites were used as a control. For the positive control of apoptosis and necrosis, the parasites were treated with hydrogen peroxide (H2O2) 50 µM and 100 µM for 2.5 h, respectively. These single-spot controls were used to calculate color compensation for flow cytometry.

[4] = system: trypomastigote form of T. cruzi (strain Y); assay: Trypanosomicidal activity in trypomastigotes; format: cell-based; details: Trypanosoma cruzi, 24 h, 4 °C, infected mouse blood
Protocol: The experiment was performed on infected, three-month-old, Balb/c mice. Seven days post-infection, when in a parasitemia peak (>1.0 × 10^6 parasites /mL), the blood of the living (anesthetized) mouse was extracted from the aorta or eye (1 mL per mouse), and citrate was used as an anticoagulant, then seeded in a 96-well plate with a final volume of 100 μL (90 μL of blood + 10 μL from a stock solution of the compound containing 10% DMSO). It was left at 4 °C, 24 h, then 5 μL of each sample was used to count trypomastigotes using a 40x optical microscope (MO) (50-field method). The plate fill was performed by homogenizing the well before filling each well (very slowly), and it was performed in triplicate or quadruplicate to obtain the IC50 values of each compound.

T. cruzi epimastigotes = details: read-out: In vitro anti-T. cruzi activity (multiple strains) (IC50); cited from earlier work
[5] = system: CL Brener clone of T. cruzi; set-up: method as in PMID 26492824; details: 192 µmoles/kg/day; cited from earlier work
T. brucei = system: T. brucei; set-up: method as in earlier work; details: read-out: In vitro anti-T. brucei activity (IC50); cited from earlier work
Leishmania infantum = system: Leishmania infantum; set-up: method as in earlier work; details: promastigotes; read-out: In vitro anti-Leishmania infantum (visceral) activity (IC50); cited from earlier work

Compound: O=C(/C=C/C=C/c1ccco1)/C=C/C=C/c1ccco1 [Compound 793]
- Ames test (mutagenicity) [1]: NO
- Ames test TA98 revertant colonies ([1]; 6 μg/plate): 5±2
- Ames test TA100 revertant colonies ([1]; 6 μg/plate): 89±3
- Ames test TA102 revertant colonies ([1]; 6 μg/plate): 171±1
- Ames test TA1535 revertant colonies ([1]; 6 μg/plate): 8±1
- Ames test TA1537 revertant colonies ([1]; 6 μg/plate): 16 ± 1
- Ames test TA98 revertant colonies ([1]; 18 μg/plate): 9±3
- Ames test TA100 revertant colonies ([1]; 18 μg/plate): 76±5
- Ames test TA102 revertant colonies ([1]; 18 μg/plate): 176±1
- Ames test TA1535 revertant colonies ([1]; 18 μg/plate): 12±1
- Ames test TA1537 revertant colonies ([1]; 18 μg/plate): 18±1
- Ames test TA98 revertant colonies ([1]; 55 μg/plate): 3±1
- Ames test TA100 revertant colonies ([1]; 55 μg/plate): 74±6
- Ames test TA102 revertant colonies ([1]; 55 μg/plate): 194±3
- Ames test TA1535 revertant colonies ([1]; 55 μg/plate): 14± 3
- Ames test TA1537 revertant colonies ([1]; 55 μg/plate): 24± 4
- Ames test TA98 revertant colonies ([1]; 166 μg/plate): 3 ± 1
- Ames test TA100 revertant colonies ([1]; 166 μg/plate): 58±3
- Ames test TA102 revertant colonies ([1]; 166 μg/plate): 203±2
- Ames test TA1535 revertant colonies ([1]; 166 μg/plate): 18±1
- Ames test TA1537 revertant colonies ([1]; 166 μg/plate): 28± 3
- Ames test TA98 revertant colonies ([1]; 500 μg/plate): 5±1
- Ames test TA100 revertant colonies ([1]; 500 μg/plate): 69±1
- Ames test TA102 revertant colonies ([1]; 500 μg/plate): 222±6
- Ames test TA1535 revertant colonies ([1]; 500 μg/plate): 20±1
- Ames test TA1537 revertant colonies ([1]; 500 μg/plate): 30 ± 3
- CA-AM/IP labeling Q1-UR (CA-AM+/IP+ double-labeled parasites) ([2]; 6 h): 82%
- CA-AM/IP labeling Q1-UR (CA-AM+/IP+ double-labeled parasites) ([2]; 24 h): 98%
- AV/IP labeling Q1-UR (double AV+/IP+ labeling) ([3]; 6 h): 74%
- AV/IP labeling Q1-UR (double AV+/IP+ labeling) ([3]; 24 h): 84%
- IC50 [4]: 25 ± 5 µM
- IC50 (T. cruzi epimastigotes): 5 µM
- Days Post-Infection of the First Parasitemia Peak [5]: 22 days
- Reduction in the Parasitemia Peak (%) [5]: 50%
- Survival (%) [5]: 83%
- IC50 (T. brucei): 17 µM
- IC50 (Leishmania infantum): 31 µM
